ChEMBL document CHEMBL1158570, “Secondary metabolites from the roots of Litsea hypophaea and their antitubercular activity” (2010)
Values after ≈ are worked out from the molar mass of the structure shown.

Tested on: Mycobacterium tuberculosis
Experiment: Antimycobacterial activity against Mycobacterium tuberculosis H37Rv after 2 weeks
Type: functional
Conditions: 336 h

Structure (SMILES) | MIC
COc1cc(/C=C/C(=O)NCCc2ccc(O)cc2)cc(OC)c1O [TRANS-N-SINAPOYLTYRAMINE] | > 100 µg/mL
COc1cc(OC)c(C[C@@H](O)Cc2ccc(OC)c(OC)c2)c(OC)c1 [HYPOPHAOL] | 100 µg/mL (≈ 276 µM)
COc1cc(/C=C/C(=O)NCCc2ccc(O)c(OC)c2)ccc1O | 1.6 µg/mL (≈ 4.66 µM)
COc1cc(C2c3c(cc(OC)c(O)c3OC)C=C(C(=O)NCCc3ccc(O)cc3)C2C(=O)NCCc2ccc(O)cc2)cc(OC)c1O (configuration not stated) | > 100 µg/mL
COc1cc(/C=C/C(=O)NCCc2ccc(O)cc2)ccc1O [N-TRANS-FERULOYL TYRAMINE] | 60 µg/mL (≈ 191 µM)
CC[C@@H](CO)NCCN[C@@H](CC)CO [ETHAMBUTOL] | 6.25 µg/mL (≈ 30.6 µM)
CCCCCCCCCCCCC/C=C1/C(=O)O[C@](C)(OC)[C@@H]1O [LITSEAKOLIDE L] | 25 µg/mL (≈ 73.4 µM)
